# Test results from patent US5085989A, “Method and reagent for quantitative analysis of 3-oxo-5β-steroid” (Daiichi Pure Chemicals Co., Ltd., priority 1986, dated 1992).
# Read-outs that look alike come from different tables or passages of the source.
# Experiment: Dehydrochoric acid level in serum after intravenous administration (loading test)
# Format: in vivo, human (liver cirrhosis patient and healthy subject)
# Details: human, 1000 mg, 1g intravenously; for AUC: read-out: area under concentration curve of the compound in blood (AUC) (converted); for k el: read-out: elimination constant (Kel) (converted)
# Experimental: A liver cirrhosis patient and a healthy subject were each intravenously given 1g of dehydrochoric acid. The changes of the dehydrochoric acid level in serum after the administration were determined according to the same procedure as in Example 1 and using the reagent of Example 1. The results are shown in the appended FIG. 1. The elimination constant (keλ), the half-life period (T 1/2) and the area under concentration curve of the compound in blood (AUC) are given in Table 3.
structure (smiles),measurement,setting,value
"C[C@H](CCC(=O)O)[C@H]1CC[C@H]2[C@@H]3C(=O)C[C@@H]4CC(=O)CC[C@]4(C)[C@H]3CC(=O)[C@]12C [Dehydrochoric Acid, dehydrochoric acid]",AUC,healthy subject,45400 ng·h/mL
same,k el,healthy subject,0.00118 s⁻¹
same,AUC,liver cirrhosis patient,23300 ng·h/mL
same,k el,liver cirrhosis patient,0.00262 s⁻¹
